Measured values reported in US20130296311A1, “INHIBITORS OF HCV NS5A” (PRESIDIO PHARMACEUTICALS, INC., priority 2010, published 2013).

Tested on: HCV 1b_Huh-Luc/Neo-ET cell line persistently expressing a bicistronic genotype 1b replicon in Huh 7 cells
Experiment: HCV replicon assay (luciferase readout, 72 h)
Type: cell-based, HCV genotype 1b
Conditions: Hepatitis C virus, Huh-7, 72 h, read-out: Inhibition of HCV genotype 1b
Method in brief: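 EC50 values come from a four-parameter fit of luciferase signal as % of untreated control, repeated across several determinations. The signal is from the HCV 1b_Huh-Luc/Neo-ET replicon line, dosed in triplicate one day post-plating and incubated 72 h before Bright-Glo readout.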

Structure (SMILES) | EC50 [nM]
CC(C)[C@@H](NC(=O)OC(C)(C)C)C(=O)N1CCC[C@H]1C(=O)NCc1ccc(C#Cc2cnc([C@@H]3CCCN3C(=O)[C@H](NC(=O)OC(C)(C)C)C(C)C)[nH]2)cc1 [Compound 120] | 10 to 999
COC(=O)N[C@@H](C(=O)N1CCC[C@H]1c1ncc(-c2ccc(C#Cc3ccc(-c4cnc([C@@H]5CCCN5C(=O)[C@H](NC(=O)OC)[C@H](C)OC)[nH]4)cc3)cc2)[nH]1)[C@H](C)OC [Compound 977] | 10 to 999
O=C(N[C@@H](C(=O)N1CCC[C@H]1C(=O)NCCc1ccc(C#Cc2cnc([C@@H]3CCCN3C(=O)[C@H](NC(=O)C3CC3)c3ccccc3)[nH]2)cc1)c1ccccc1)C1CC1 [Compound 125] | < 1
CC(C)[C@H](NC(=O)OC(C)(C)C)C(=O)N1CCC[C@H]1c1ncc(-c2ccc(C#Cc3ccc(-c4cnc([C@@H]5CCCN5C(=O)[C@@H](NC(=O)OC(C)(C)C)C(C)C)[nH]4)cc3)cc2)[nH]1 [Compound 165] | 10 to 999
COC(=O)N[C@@H](C(=O)N1CCC[C@H]1c1ncc(C#Cc2ccc(-c3ccc(-c4cnc([C@@H]5CCCN5C(=O)[C@@H](c5ccccc5)N(C)C)[nH]4)cc3)cc2)[nH]1)c1ccccc1 [Compound 755] | < 1
O=C(N[C@@H](C(=O)N1CCC[C@H]1c1ncc(-c2ccc(C#Cc3ccc(-c4cnc([C@@H]5CCCN5C(=O)[C@H](NC(=O)N5CCOCC5)c5ccccc5)[nH]4)cc3)cc2)[nH]1)c1ccccc1)C1CC1 [Compound 239] | < 1
COC(=O)N[C@@H](CCC(N)=O)C(=O)N1CCC[C@H]1c1ncc(-c2ccc(C#Cc3ccc4nc([C@@H]5CCCN5C(=O)[C@H](CCC(N)=O)NC(=O)OC)[nH]c4c3)cc2)[nH]1 [Compound 1051] | 1 to 9.9
CC(C)(C)OC(=O)N[C@@H](C(=O)N1CCC[C@H]1c1ncc(-c2ccc(C#Cc3ccc(-c4cnc([C@@H]5CCCN5C(=O)[C@H](NC(=O)OC(C)(C)C)c5ccccc5)[nH]4)cc3)cc2)[nH]1)c1ccccc1 [Compound 246] | < 1
CN(C)C(=O)N[C@@H](C(=O)N1CCC[C@H]1c1cc(-c2ccc(C#Cc3ccc(-c4cnc([C@@H]5CCCN5C(=O)[C@H](NC(=O)N(C)C)c5ccccc5)[nH]4)cc3)cc2)n[nH]1)c1ccccc1 [Compound 221] | < 1
O=C([C@@H](c1ccccc1)N1CCCCC1)N1CCC[C@H]1c1ncc(-c2ccc(C#Cc3ccc(-c4cnc([C@@H]5CCCN5C(=O)[C@@H](c5ccccc5)N5CCCCC5)[nH]4)cc3)cc2)[nH]1 [Compound 205] | < 1
CC(C)[C@H](NC(=O)[C@H](NC(=O)OC(C)(C)C)c1ccccc1)c1ncc(-c2ccc(C#Cc3ccc(-c4cnc([C@@H]5CCCN5C(=O)[C@H](NC(=O)OC(C)(C)C)c5ccccc5)[nH]4)cc3)cc2)[nH]1 [Compound 281] | 1 to 9.9
O=C(N[C@@H](C(=O)N1CCC[C@H]1c1nc(-c2ccc3cc(C#Cc4cnc([C@@H]5CCCN5C(=O)[C@H](NC(=O)N5CCOCC5)c5ccccc5)[nH]4)ccc3c2)c[nH]1)c1ccccc1)N1CCOCC1 [Compound 808] | < 1
COC(=O)N[C@H](C(=O)N1CCC[C@H]1c1ncc(-c2ccc(C#Cc3ccc(-c4cnc([C@@H]5CCCN5C(=O)[C@@H](Nc5ncccn5)C(C)C)[nH]4)cc3)cc2)[nH]1)C(C)C [Compound 1003] | < 1
CC(C)[C@@H](NC(=O)OC(C)(C)C)C(=O)N1CCC[C@H]1c1ncc(C#Cc2ccc(-c3cnc([C@@H]4CCCN4C(=O)[C@H](NC(=O)OC(C)(C)C)C(C)C)[nH]3)cc2)[nH]1 [Compound 105] | 10 to 999
C(#Cc1ccc2nc([C@@H]3CCCN3)[nH]c2c1)c1ccc(-c2cnc([C@@H]3CCCN3)[nH]2)cc1 [Compound 1035] | 10 to 999

Same assay, conditions: Hepatitis C virus, Huh-7, read-out: Inhibition of HCV genotype 1b

Structure (SMILES) | EC50 [nM]
COC(=O)N[C@H](C(=O)N1CCC[C@H]1c1ncc(-c2ccc(C#Cc3ccc(-c4cnc([C@@H]5CCCN5C(=O)[C@H](NC(=O)OC)c5ccccc5)[nH]4)cc3)cc2)[nH]1)[C@@H](C)OC [Compound 1210] | < 1
COC(=O)NC(C(=O)N1CCC[C@H]1c1nc2ccc(C#Cc3ccc4cc(-c5cnc([C@@H]6CCCN6C(=O)[C@H](NC(=O)OC)c6ccccc6)[nH]5)ccc4n3)cc2[nH]1)C(C)C (stereo partly drawn) [Compound 1289] | < 1
COC(=O)N[C@H](C(=O)N1CCC[C@H]1c1ncc(-c2ccc(C#Cc3ccc(-c4cnc([C@@H]5CCCN5C(=O)[C@@H](NC(=O)OC)C5CCOCC5)[nH]4)cc3)cc2)[nH]1)C1CCCC1 [Compound 1221] | < 1
